Drawing on patent US8361998B2, “Compounds and their use as IKACh blockers” (AstraZeneca AB, priority 2010, dated 2013), this text covers IC50 for 33 molecules.

Usually IC50 stands for the concentration at which inhibition is half-maximal.

The first assay concerns the target T1, human cardiac ion channel proteins hKir3.1/Kir3.4 (Homo sapiens, UniProt P48544+P48549).
T1 construct: expressed in transfected cells
T1 sequence (P48549 1-501): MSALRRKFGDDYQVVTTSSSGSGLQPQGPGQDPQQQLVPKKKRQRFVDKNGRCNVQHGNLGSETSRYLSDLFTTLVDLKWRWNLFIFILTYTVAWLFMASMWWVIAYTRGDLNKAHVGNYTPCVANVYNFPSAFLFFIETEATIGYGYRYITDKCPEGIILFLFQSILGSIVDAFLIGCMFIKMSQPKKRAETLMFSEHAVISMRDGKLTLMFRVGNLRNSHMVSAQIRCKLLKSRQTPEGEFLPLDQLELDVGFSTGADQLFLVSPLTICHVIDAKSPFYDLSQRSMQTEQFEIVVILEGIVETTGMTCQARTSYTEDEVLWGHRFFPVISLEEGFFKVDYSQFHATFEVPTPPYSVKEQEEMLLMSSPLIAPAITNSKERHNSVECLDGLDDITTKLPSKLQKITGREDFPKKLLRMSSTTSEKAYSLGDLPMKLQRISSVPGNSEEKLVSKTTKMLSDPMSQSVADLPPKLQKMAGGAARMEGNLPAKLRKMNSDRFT
T1 sequence (P48544 1-419): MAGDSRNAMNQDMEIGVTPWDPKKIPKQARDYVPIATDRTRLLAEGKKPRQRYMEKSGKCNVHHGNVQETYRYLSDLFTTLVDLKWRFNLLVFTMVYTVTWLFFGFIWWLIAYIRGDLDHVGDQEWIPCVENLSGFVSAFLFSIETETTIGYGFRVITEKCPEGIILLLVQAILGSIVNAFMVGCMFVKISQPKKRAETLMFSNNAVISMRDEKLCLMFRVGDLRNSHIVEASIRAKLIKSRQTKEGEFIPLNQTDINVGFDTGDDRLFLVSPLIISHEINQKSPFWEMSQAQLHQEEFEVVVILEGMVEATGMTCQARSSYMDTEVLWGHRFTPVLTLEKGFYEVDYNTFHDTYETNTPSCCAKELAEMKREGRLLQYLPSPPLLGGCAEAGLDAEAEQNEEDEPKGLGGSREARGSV
Kind of assay: Atomic Absorption Screening (AAS) Rb efflux assay of hKir3.1/Kir3.4 block, carbachol/high K+ stimulated, 10-pt or 7-pt CR. Type of assay: cell-based. The following applies: 7-pt CR (0.037 to 27 μmol/L), AAS Rb efflux, CHO-K1 cells expressing hKir3.1/Kir3.4; mean of >3 replicates; read-out: IKACh IC50 7-pt CR, AAS. A digest of the protocol:
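CHO-K1 cells stably co-expressing human Kir3.1/Kir3.4 were Rb-loaded for 3 h at 37° C, preincubated with compound 5 min at RT, then stimulated 10 min with 10 μM carbachol plus 20 mM KCl (final). Supernatant Rb was measured by atomic absorption. Compounds ran at 0.003–67 μmol/L (10-pt) or 0.037–27 μmol/L (7-pt), threefold dilutions; IC50s are means of >4 or >3 replicates respectively.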
For `CC(C)[C@@H](CN1CCCC1)N(C)C(=O)c1cccc(Cl)c1` [Example 16.48, (S)-3-Chloro-N-methyl-N-(3-methyl-1-(pyrrolidin-1-yl)butan-2-yl)benzamide], the IC50 worked out at 4.2 µM. On the same count and under the same terms, the value for `CC(C)[C@@H](CN1CCCCC1)N(C)C(=O)c1cccc(Cl)c1` [Example 16.37, (S)-3-Chloro-N-methyl-N-(3-methyl-1-(piperidin-1-yl)butan-2-yl)benzamide] was 14 µM; that for `CC(C)[C@@H](CN1CC[C@H](O)C1)N(C)C(=O)c1ccc(F)cc1C(F)(F)F` [Example 16.46, 4-Fluoro-N—((S)-1-((S)-3-hydroxypyrrolidin-1-yl)-3-methylbutan-2-yl)-N-methyl-2-(trifluoromethyl)benzamide] was 19 µM; that for `CC(C)[C@@H](CN1CCCC1)N(C)C(=O)c1c(F)cccc1F` [Example 16.24, 2,6-Difluoro-N-methyl-N-[(1S)-2-methyl-1-(pyrrolidin-1-ylmethyl)propyl]benzamide] was greater than 27 µM.

The assay is the same for the next values; noted with them: 10-pt CR (0.003 to 67 μmol/L), AAS Rb efflux, CHO-K1 cells expressing hKir3.1/Kir3.4; mean of >4 replicates; read-out: IKACh IC50 10-pt CR, AAS.
Turning to `Cc1cc(C(=O)N(C)[C@H](CN2C[C@@H](O)[C@H](O)C2)C(C)C)ccc1Cl` [Example 8.16, 4-Chloro-N-((S)-1-((3R,4R)-3,4-dihydroxypyrrolidin-1-yl)-3-methylbutan-2-yl)-N,3-dimethylbenzamide], the concentration for half-maximal inhibition (IC50) was found to be 16 µM. The same measure, in the same setting: the value for `CCC[C@@H](CN1CC(O)C1)N(C)C(=O)c1ccc(C#N)cc1` [Example 8.9, (S)-4-Cyano-N-(1-(3-hydroxyazetidin-1-yl)pentan-2-yl)-N-methylbenzamide] was 8.6 µM; that for `CN(C(=O)c1ccc(Cl)cc1)C(CN1CC(O)C1)C1CCCC1` (single isomer, unassigned) [32.3, isomer 2] was 0.3 µM. The same measure, in the same setting: the value for `CN(C(=O)c1ccc(Cl)cc1)[C@H](CN1CCCC1)C1CC1` [Example 3.14, (S)-4-Chloro-N-(1-cyclopropyl-2-(pyrrolidin-1-yl)ethyl)-N-methylbenzamide] was 5.7 µM; that for `CN(C(=O)c1ccc(C#N)cc1)[C@H](CN1CC(O)C1)C1CCCCC1` [Example 36.1, 4-cyano-N-[(1S)-1-cyclohexyl-2-(3-hydroxyazetidin-1-yl)ethyl]-N-methylbenzamide] was 0.41 µM.

Consider `CN(C(=O)c1ccc(C#N)cc1)[C@@H](CN1CC(O)C1)C1CCC1` [Example 35.2, 4-Cyano-N-[(1R)-1-cyclobutyl-2-(3-hydroxyazetidin-1-yl)ethyl]-N-methylbenzamide], for which the IC50 was determined as 14 µM. Take `CO[C@H](C)[C@@H](CN1CC(O)C1)N(C)C(=O)c1ccc(Cl)cc1` [Example 30, 4-Chloro-N-((2R,3R)-1-(3-hydroxyazetidin-1-yl)-3-methoxybutan-2-yl)-N-methylbenzamide]: the IC50 worked out at 6.3 µM.

For the molecule `Cc1ccc(C(=O)N(C)[C@@H](C)CN2CC(O)C2)cc1C` [Example 40.2, (S)—N-(1-(3-Hydroxyazetidin-1-yl)propan-2-yl)-N,3,4-trimethylbenzamide], the IC50 is 8.5 µM. The same measure, in the same setting: the same measure for `CCCC[C@@H](CN1CC(O)C1)N(C)C(=O)c1ccc(F)c(F)c1` [Example 33.2, 3,4-Difluoro-N-[(2S)-1-(3-hydroxyazetidin-1-yl)hexan-2-yl]-N-methylbenzamide]: 0.32 µM. Take `CCC[C@@H](CN1CC(O)C1)N(C)C(=O)c1ccc(Cl)c(C)c1` [Example 8.4, (S)-4-Chloro-N-(1-(3-hydroxyazetidin-1-yl)pentan-2-yl)-N,3-di-methylbenzamide]: the IC50 was 0.2 µM. Take `CC(C)[C@@H](CN1CC(O)C1)N(C)C(=O)c1ccc(Br)cc1` [Example 6.3, (S)-4-Bromo-N-(1-(3-hydroxyazetidin-1-yl)-3-methylbutan-2-yl)-N-methylbenzamide]: the IC50 worked out at 2.5 µM. For `CC[C@H](C)[C@@H](CN1CC(O)C1)N(C)C(=O)c1cc(Cl)ccc1OC` [Example 29.9, 5-Chloro-N-((2S,3S)-1-(3-hydroxyazetidin-1-yl)-3-methylpentan-2-yl)-2-methoxy-N-methylbenzamide], the IC50 worked out at 16 µM. On the same count and under the same terms, the value for `CC(C)[C@@H](CN1CCCCC1)N(C)C(=O)c1cccc(Cl)c1` [Example 16.37, (S)-3-Chloro-N-methyl-N-(3-methyl-1-(piperidin-1-yl)butan-2-yl)benzamide] was 15 µM.

Turning to `CC(C)[C@@H](CN1CC(F)C1)N(C)C(=O)c1ccc(Br)cc1` [Example 1.7, (S)-4-Bromo-N-(1-(3-fluoroazetidin-1-yl)-3-methylbutan-2-yl)-N-methylbenzamide], the IC50 was found to be 5 µM.

Take `CN(C(=O)c1ccc(F)c(F)c1)[C@H](CN1CC(O)C1)C1CCCC1` (single isomer, unassigned) [32.1, isomer 2]: the IC50 is 2.3 µM. Still for that read-out and setting: the value for `CC(C)C[C@@H](CN1CC(O)C1)N(C)C(=O)c1cccc(C(F)F)c1` [Example 38.4, 3-(Difluoromethyl)-N-[(2S)-1-(3-hydroxyazetidin-1-yl)-4-methylpentan-2-yl]-N-methylbenzamide] was 0.77 µM; that for `CN(C(=O)c1ccc(F)c(F)c1)[C@H](CN1CC(O)C1)C1CC1` [Example 9.9, (S)-N-(1-Cyclopropyl-2-(3-hydroxyazetidin-1-yl)ethyl)-3,4-difluoro-N-methylbenzamide] was 11 µM. Regarding `CN(C(=O)c1ccc(F)cc1Cl)C(CN1CC(O)C1)C1CCCC1` (single isomer, unassigned) [32.6, isomer 1], the IC50 came out at 1.1 µM. With `CC[C@@H](CN1CCCC1)N(C)C(=O)c1ccc(Cl)c(Cl)c1` [Example 17.2, (S)-3,4-Dichloro-N-methyl-N-(1-(pyrrolidin-1-yl)butan-2-yl)benzamide], the IC50 came out at 1.4 µM. On to `CN(C(=O)c1ccc(F)cc1Cl)[C@@H](CN1CC(O)C1)C1CCC1` [Example 35.6, 2-Chloro-N-[(1R)-1-cyclobutyl-2-(3-hydroxyazetidin-1-yl)ethyl]-4-fluoro-N-methylbenzamide], for which the IC50 is 4.6 µM. Consider `CN(C(=O)c1ccc(Br)cc1)[C@H](CN1CCCC1)C1CC1` [Example 3.15, (S)-4-Bromo-N-(1-cyclopropyl-2-(pyrrolidin-1-yl)ethyl)-N-methylbenzamide], for which the IC50 was 3.8 µM.

Regarding `CC(C)[C@@H](CN1CCCC1)N(C)C(=O)c1c(F)cccc1F` [Example 16.24, 2,6-Difluoro-N-methyl-N-[(1S)-2-methyl-1-(pyrrolidin-1-ylmethyl)propyl]benzamide], the half-inhibitory concentration (IC50) was found to be 9.8 µM. Still for that read-out and setting: the value for `CCC[C@@H](CN1CC(O)C1)N(C)C(=O)c1ccc(C)c(C)c1` [Example 23, (S)—N-(1-(3-Hydroxyazetidin-1-yl)pentan-2-yl)-N,3,4-trimethylbenzamide] was 0.44 µM; that for `CN(C(=O)c1ccc(F)c(C(F)(F)F)c1)[C@H](CN1CC(O)C1)C1CC1` [Example 7.5, (S)-N-(1-Cyclopropyl-2-(3-hydroxyazetidin-1-yl)ethyl)-4-fluoro-N-methyl-3-(trifluoromethyl)benzamide] was 1.8 µM. Still for that read-out and setting: the value for `CN(C(=O)c1ccc(F)cc1)[C@H](CN1CC(O)C1)C1CCC1` [Example 39.13, (S)—N-(1-Cyclobutyl-2-(3-hydroxyazetidin-1-yl)ethyl)-4-fluoro-N-methylbenzamide] was 0.16 µM. In the case of `CC[C@H](C)[C@@H](CN1CCCC1)N(C)C(=O)c1ccc(F)c(C)c1` [Example 2.5, 4-Fluoro-N,3-dimethyl-N-((2S,3S)-3-methyl-1-(pyrrolidin-1-yl)pentan-2-yl)benzamide], the IC50 amounted to 2.7 µM.

In the case of `CN(C(=O)c1ccc(Cl)cc1)[C@@H](CN1CC(O)C1)C1CCC1` [Example 35.1, 4-Chloro-N-[(1R)-1-cyclobutyl-2-(3-hydroxyazetidin-1-yl)ethyl]-N-methylbenzamide], the IC50 was determined as 3.4 µM.

Staying with this assay, now noted: printed as IC50 >67 μM in the 10-pt CR assay or IC50 >27 μM in the 7-pt CR assay; assay format per compound not stated; read-out: IC50.
As for `CC(C)[C@H](CN1CCCC1)N(C)C(=O)c1ccccc1OC(F)(F)F` [N-Methyl-N-[(1R)-2-methyl-1-(pyrrolidin-1-ylmethyl)propyl]-2-(trifluoromethoxy)benzamide], the IC50 was greater than 27 µM. Same read-out and setting: the same measure for `CC(C)[C@@H](CN1CCCCC1)N(C)C(=O)c1ccc(OC(F)(F)F)cc1` [N-Methyl-N-[(1S)-2-methyl-1-(piperidin-1-ylmethyl)propyl]-4-(trifluoromethoxy)benzamide]: greater than 27 µM; for `CC(CN1CCCC1)N(C)C(=O)c1cccc(Cl)c1` (centres unmarked) [3-Chloro-N-methyl-N-(1-methyl-2-pyrrolidin-1-ylethyl)benzamide]: greater than 27 µM; for `CCC[C@@H](CN1C[C@@H](O)[C@@H]1C)N(C)C(=O)c1ccc(F)c(F)c1` [3,4-Difluoro-N-((S)-1-((2S,3R)-3-hydroxy-2-methylazetidin-1-yl)pentan-2-yl)-N-methylbenzamide]: greater than 27 µM.
